Assay results from PMC3021692, “Synthesis and Pharmacological Evaluation of Novel Schiff Base Analogues of 3-(4-amino) Phenylimino) 5-fluoroindolin-2-one” (Journal of Young Pharmacists : JYP, 2010).

What was measured:
Format in all cases: in vivo
Wistar albino mice = experiment: Analgesic activity, tail-flick technique; settings: for Percent analgesic activity: mean ± SD (n = 6); for Analgesic activity (in words): tail-flick, structure-activity comparison within the series / vs diclofenac sodium
Procedure: (§1) The synthesized compounds were evaluated for analgesic, anti-inflammatory, and ulcerogenic index. […] The test compounds and the standard drugs were administered in the form of a suspension (1% carboxymethyl cellulose as a vehicle) by oral route for analgesic and anti-inflammatory but for ulcerogenicity studies by intraperitoneally as suspension in 10% v/v Tween-20. Each group consisted of six animals. The animals were procured from the C. L. Baid Metha College of pharmacy, Chennai, and were maintained in colony cages at 25 ±2°C, relative humidity of 45-55%, under a 12-h light and dark cycle; they were fed standard animal feed. All the animals were acclimatized for a week before use. The Institutional Animal Ethics Committee approved the protocol adopted for the experimentation of animals.
The analgesic activity was performed by tail-flick technique using Wistar albino mice (25-35 g) of either sex selected by the random sampling technique.[1314] Diclofenac sodium at a dose level of 10 mg/kg and 20 mg/kg was administered orally as reference drug for comparison. The test compounds at two dose levels (10, 20 mg/kg) were administered orally. The reaction time was recorded at 30 min, 1, 2, and 3 h after the treatment, and cut-off time was 10 s. The percent analgesic activity (PAA) was calculated by the following formula, where T1 is the reaction time (s) before treatment, and T2 is the reaction time (s) after treatment.

[1] = test system: carrageenan-induced paw edema in rats; experiment: Anti-inflammatory activity, carrageenan-induced paw edema test; settings: for Percent anti-inflammatory activity (percent inhibition of paw edema): mean ± SD (n = 6)
Procedure: as §1
Anti-inflammatory activity was evaluated by carrageenan-induced paw edema test in rats.[15] Diclofenac sodium 10, 20 mg/kg was administered as a standard drug for comparison. The test compounds were administered at two dose levels (10 mg/kg, 20 mg/kg). The paw volumes were measured using the mercury displacement technique with the help of a plethysmograph (Model PLYAN; Buxco, USA) immediately before and 30 min, 1, 2, and 3 h after carrageenan injection. The percent inhibition of paw edema was calculated using the following formula.
Percent inhibition I = 100 1− (a−x) / (b−y)
Where x is the mean paw volume of rats before the administration of carrageenan and test compounds or reference compound (test group), a is the mean paw volume of rats after the administration of carrageenan in the test group (drug treated), b is the mean paw volume of rats after the administration of carrageenan in the control group, y is the mean paw volume of rats before the administration of carrageenan in the control group.

[2] = test system: Albino rats of Wistar strain; experiment: Evaluation of ulcerogenicity index (pylorus ligation); parameters: scale not given here; settings: mean ± SD (n = 6)
Procedure: The synthesized compounds were evaluated for analgesic, anti-inflammatory, and ulcerogenic index. […] The test compounds and the standard drugs were administered in the form of a suspension (1% carboxymethyl cellulose as a vehicle) by oral route for analgesic and anti-inflammatory but for ulcerogenicity studies by intraperitoneally as suspension in 10% v/v Tween-20. Each group consisted of six animals. The animals were procured from the C. L. Baid Metha College of pharmacy, Chennai, and were maintained in colony cages at 25 ±2°C, relative humidity of 45-55%, under a 12-h light and dark cycle; they were fed standard animal feed. All the animals were acclimatized for a week before use. The Institutional Animal Ethics Committee approved the protocol adopted for the experimentation of animals. Ulceration in rats was induced as described by Goyal et al. Albino rats of Wistar strain weighing 150-200 g of either sex were divided into various groups each of six animals.[16] Control group of animals was administered only with 10% v/v Tween 80 suspension intraperitonially. One group was administered with aspirin (German Remedies) intraperitoneally at a dose of 200 mg/kg once daily for 3 days. The remaining group of animals was administered with test compounds intraperitoneally at a dose of 20 mg/kg. On fourth day, Pylorus was ligated as per the method of Shay et al.[17] Animals were fasted for 36 h before the pylorus ligation procedure. Four hours after the ligation, animals were sacrificed. The stomach was removed and opened along with the greater curvature. Ulcer index was determined by the method of Ganguly and Bhatnagar.[18]

[3] = 10 mg/kg oral, 30 min after treatment
[4] = 10 mg/kg oral, 1 h after treatment
[5] = 10 mg/kg oral, 2 h after treatment
[6] = 10 mg/kg oral, 3 h after treatment
[7] = 20 mg/kg oral, 30 min after treatment
[8] = 20 mg/kg oral, 1 h after treatment
[9] = 20 mg/kg oral, 2 h after treatment
[10] = 20 mg/kg oral, 3 h after treatment
[11] = 10 mg/kg oral, 30 min after carrageenan
[12] = 10 mg/kg oral, 1 h after carrageenan
[13] = 10 mg/kg oral, 2 h after carrageenan
[14] = 10 mg/kg oral, 3 h after carrageenan
[15] = 20 mg/kg oral, 30 min after carrageenan
[16] = 20 mg/kg oral, 1 h after carrageenan
[17] = 20 mg/kg oral, 2 h after carrageenan
[18] = 20 mg/kg oral, 3 h after carrageenan
[19] = test compounds 20 mg/kg intraperitoneally, pylorus ligated on fourth day

Row | SMILES | Percent analgesic activity (Wistar albino mice; [3]) | Percent analgesic activity (Wistar albino mice; [4]) | Percent analgesic activity (Wistar albino mice; [5]) | Percent analgesic activity (Wistar albino mice; [6]) | Percent analgesic activity (Wistar albino mice; [7]) | Percent analgesic activity (Wistar albino mice; [8]) | Percent analgesic activity (Wistar albino mice; [9]) | Percent analgesic activity (Wistar albino mice; [10]) | Percent anti-inflammatory activity (percent inhibition of paw edema) [1, 11] | Percent anti-inflammatory activity (percent inhibition of paw edema) [1, 12] | Percent anti-inflammatory activity (percent inhibition of paw edema) [1, 13] | Percent anti-inflammatory activity (percent inhibition of paw edema) [1, 14] | Percent anti-inflammatory activity (percent inhibition of paw edema) [1, 15] | Percent anti-inflammatory activity (percent inhibition of paw edema) [1, 16] | Percent anti-inflammatory activity (percent inhibition of paw edema) [1, 17] | Percent anti-inflammatory activity (percent inhibition of paw edema) [1, 18] | Ulcer index [2, 19] | Analgesic activity (in words) (Wistar albino mice) | other results
1 | O=C1Nc2ccc(F)cc2C1=Nc1ccc(N=Cc2ccc(O)cc2)cc1 [Compound N10] | 43 ± 1.55 % | 46 ± 1.72 % | 49 ± 1.52 % | 38 ± 1.92 % | 48 ± 1.56 % | 52 ± 1.96 % | 58 ± 1.16 % | 42 ± 1.43 % | 43 ± 1.55 % | 49 ± 1.72 % | 54 ± 1.52 % | 39 ± 1.92 % | 48 ± 1.56 % | 54 ± 1.65 % | 58 ± 1.16 % | 42 ± 1.43 % | 0.81 ± 1.18 | – | –
2 | CC(=O)Oc1ccccc1C(=O)O [Aspirin, aspirin, reference compound] | – | – | – | – | – | – | – | – | – | – | – | – | – | – | – | – | – | – | Ulcer index ([2]; aspirin 200 mg/kg intraperitoneally once daily for 3 days, pylorus ligated on fourth day): 1.73 ± 0.39; Ulcer index ([2]; aspirin 200 mg/kg intraperitoneally once daily for 3 days, pylorus ligated on fourth day, listed as aspirin): 1.73 ± 0.41
3 | CCC(C)=Nc1ccc(N=C2C(=O)Nc3ccc(F)cc32)cc1 [Compound N1] | 47 ± 1.25 % | 51 ± 1.32 % | 53 ± 1.15 % | 31 ± 1.96 % | 54 ± 1.36 % | 58 ± 1.96 % | 60 ± 1.16 % | 47 ± 1.45 % | 39 ± 1.25 % | 45 ± 1.32 % | 52 ± 1.15 % | 32 ± 1.96 % | 44 ± 1.36 % | 52 ± 1.96 % | 58 ± 1.32 % | 37 ± 1.45 % | 0.84 ± 1.43 | – | –
4 | CC(=Nc1ccc(N=C2C(=O)Nc3ccc(F)cc32)cc1)c1ccccc1 [Compound N5] | 44 ± 1.76 % | 49 ± 1.88 % | 52 ± 1.55 % | 32 ± 1.26 % | 52 ± 1.33 % | 55 ± 1.95 % | 59 ± 1.36 % | 42 ± 1.48 % | 39 ± 1.56 % | 46 ± 1.88 % | 52 ± 1.65 % | 32 ± 1.26 % | 45 ± 1.73 % | 54 ± 1.95 % | 59 ± 1.36 % | 42 ± 1.48 % | 0.82 ± 1.32 | moderate decrease in activity | –
5 | O=C1Nc2ccc(F)cc2C1=Nc1ccc(N=Cc2ccc(Cl)cc2)cc1 [Compound N9] | 42 ± 1.82 % | 44 ± 1.72 % | 48 ± 1.59 % | 38 ± 1.72 % | 46 ± 1.68 % | 51 ± 1.46 % | 57 ± 1.18 % | 45 ± 1.32 % | 38 ± 1.82 % | 44 ± 1.32 % | 48 ± 1.99 % | 38 ± 1.72 % | 46 ± 1.68 % | 51 ± 1.46 % | 57 ± 1.18 % | 45 ± 1.32 % | 0.75 ± 1.26 | decreasing activity | –
6 | CCCC(C)=Nc1ccc(N=C2C(=O)Nc3ccc(F)cc32)cc1 [Compound N3] | 55 ± 1.75 % | 62 ± 1.82 % | 64 ± 1.35 % | 46 ± 1.96 % | 62 ± 1.59 % | 66 ± 1.77 % | 69 ± 1.24 % | 52 ± 1.45 % | 49 ± 1.75 % | 54 ± 1.82 % | 60 ± 1.35 % | 43 ± 1.96 % | 54 ± 1.59 % | 62 ± 1.77 % | 66 ± 1.24 % | 52 ± 1.45 % | 0.85 ± 1.28 | good activity | Anti-inflammatory activity compared to reference standard diclofenac sodium (in words) ([1]; carrageenan-induced paw edema in rats): moderately more potent
7 | O=C(O)Cc1ccccc1Nc1c(Cl)cccc1Cl [Diclofenac, Diclofenac sodium, reference compound] | 37 ± 1.69 % | 43 ± 1.42 % | 45 ± 0.92 % | 33 ± 0.96 % | 46 ± 0.95 % | 55 ± 1.16 % | 62 ± 1.49 % | 39 ± 1.13 % | 32 ± 0.69 % | 38 ± 1.42 % | 39 ± 1.97 % | 33 ± 0.93 % | 45 ± 1.65 % | 52 ± 0.96 % | 60 ± 1.52 % | 39 ± 1.13 % | – | – | Ulcer index ([2]; diclofenac reference, dose not given): 1.65 ± 0.48
